Source: patent US4081531A, “Antibiotic mimosamycin” (priority 1975, dated 1978)
In brackets after ≈: the same amount, converted by molar mass.

Tested on: Mycobacterium tuberculosis SMR
Assay: Antimicrobial activity (MIC) against tubercle bacilli
Assay type: cell-based
Details: 672 h

Structure (SMILES): COC1=C(C)C(=O)c2cc(=O)n(C)cc2C1=O [mimosamycin]
- MIC: 1.56 µg/mL (≈ 6.69 µM)
